# According to article PMC10924921, “Mi-2β promotes immune evasion in melanoma by activating EZH2 methylation” (Nature Communications, 2024):
# What was measured:
# Experiment in all cases: biochemical
# Parameters in all cases: KINOMEscan active-site competition binding panel (468 kinase assays), per cent of control at 1000 nM
# Settings in all cases: KINOMEscan per cent of control (binding competition); read-out: Percent Control
# [1] = target: T1, VEGFR2 (Homo sapiens, UniProt P35968)
# T1 construct: gene KDR
# Source text: (§1) Figure S7 / Percent Control
# [2] = target: T2, NDR2 (Homo sapiens, UniProt Q9Y2H1)
# T2 construct: gene STK38L
# Source text: as §1
# [3] = target: KIT (Homo sapiens, UniProt P10721)
# Source text: as §1
# [4] = target: EPHA7 (Homo sapiens, UniProt Q15375)
# Source text: as §1
# [5] = target: T3, SIK (Homo sapiens, UniProt P57059)
# T3 construct: gene SIK1
# Source text: as §1
# [6] = target: T4, ABL1(F317I)-phosphorylated (Homo sapiens, UniProt P00519, F317I)
# T4 construct: phosphorylated
# Source text: as §1
# [7] = target: SRPK3 (Homo sapiens, UniProt Q9UPE1)
# Source text: as §1
# [8] = target: SRMS (Homo sapiens, UniProt Q9H3Y6)
# Source text: as §1
# [9] = target: MAK (Homo sapiens, UniProt P20794)
# Source text: as §1
# [10] = target: NEK5 (Homo sapiens, UniProt Q6P3R8)
# Source text: as §1
# [11] = target: T5, RSK3(Kin.Dom.2-C-terminal) (Homo sapiens, UniProt Q15349)
# T5 construct: gene RPS6KA2; Kin.Dom.2-C-terminal
# Source text: as §1
# [12] = target: TGFBR1 (Homo sapiens, UniProt P36897)
# Source text: as §1
# [13] = target: PIM1 (Homo sapiens, UniProt P11309)
# Source text: as §1
# [14] = target: CSNK1D (Homo sapiens, UniProt P48730)
# Source text: as §1
# [15] = target: CIT (Homo sapiens, UniProt O14578)
# Source text: as §1
# [16] = target: T6, CDC2L2 (Homo sapiens, UniProt Q9UQ88)
# T6 construct: gene CDK11A
# Source text: as §1
# [17] = target: T7, CDK4-cyclinD3 (Homo sapiens, UniProt P11802)
# T7 construct: cyclinD3
# Source text: as §1
# [18] = target: T8, DRAK2 (Homo sapiens, UniProt O94768)
# T8 construct: gene STK17B
# Source text: as §1
# [19] = target: TAOK1 (Homo sapiens, UniProt Q7L7X3)
# Source text: as §1
# [20] = target: T9, ABL1(F317L)-nonphosphorylated (Homo sapiens, UniProt P00519, F317L)
# T9 construct: nonphosphorylated
# Source text: as §1
# [21] = target: T10, RSK2(Kin.Dom.1-N-terminal) (Homo sapiens, UniProt P51812)
# T10 construct: gene RPS6KA3; Kin.Dom.1-N-terminal
# Source text: as §1
# [22] = target: T11, YANK2 (Homo sapiens, UniProt Q9NY57)
# T11 construct: gene STK32B
# Source text: as §1
# [23] = target: FGFR1 (Homo sapiens, UniProt P11362)
# Source text: as §1
# [24] = target: NLK (Homo sapiens, UniProt Q9UBE8)
# Source text: as §1
# Chain of EPHA7 (Q15375 whole entry): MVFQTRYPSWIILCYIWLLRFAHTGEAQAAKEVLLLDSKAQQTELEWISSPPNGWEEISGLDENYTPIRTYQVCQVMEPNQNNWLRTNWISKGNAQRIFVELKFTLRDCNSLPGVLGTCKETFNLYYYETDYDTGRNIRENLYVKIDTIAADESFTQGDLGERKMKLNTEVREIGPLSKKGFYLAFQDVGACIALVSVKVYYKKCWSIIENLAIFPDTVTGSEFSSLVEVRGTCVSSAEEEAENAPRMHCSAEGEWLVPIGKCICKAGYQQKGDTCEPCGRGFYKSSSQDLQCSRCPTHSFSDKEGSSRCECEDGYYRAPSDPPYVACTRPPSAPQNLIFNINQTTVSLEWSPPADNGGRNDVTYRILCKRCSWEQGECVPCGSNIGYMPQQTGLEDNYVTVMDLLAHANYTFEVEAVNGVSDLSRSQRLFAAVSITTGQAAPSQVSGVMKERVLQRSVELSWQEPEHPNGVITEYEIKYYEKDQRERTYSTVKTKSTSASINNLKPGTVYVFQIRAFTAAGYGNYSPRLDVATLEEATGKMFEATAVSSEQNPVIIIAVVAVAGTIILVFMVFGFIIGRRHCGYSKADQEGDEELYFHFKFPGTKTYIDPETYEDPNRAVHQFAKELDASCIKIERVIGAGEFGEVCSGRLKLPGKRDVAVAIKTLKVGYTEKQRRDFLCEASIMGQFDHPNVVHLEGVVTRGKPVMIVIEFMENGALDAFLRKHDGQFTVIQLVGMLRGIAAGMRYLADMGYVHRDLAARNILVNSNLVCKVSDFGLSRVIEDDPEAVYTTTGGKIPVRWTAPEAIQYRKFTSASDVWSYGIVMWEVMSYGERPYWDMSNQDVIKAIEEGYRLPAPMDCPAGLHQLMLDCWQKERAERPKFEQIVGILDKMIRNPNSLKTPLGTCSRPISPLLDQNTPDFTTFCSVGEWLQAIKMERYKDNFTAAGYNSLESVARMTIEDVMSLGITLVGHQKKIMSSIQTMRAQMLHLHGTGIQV
# Chain of SRMS (Q9H3Y6 whole entry): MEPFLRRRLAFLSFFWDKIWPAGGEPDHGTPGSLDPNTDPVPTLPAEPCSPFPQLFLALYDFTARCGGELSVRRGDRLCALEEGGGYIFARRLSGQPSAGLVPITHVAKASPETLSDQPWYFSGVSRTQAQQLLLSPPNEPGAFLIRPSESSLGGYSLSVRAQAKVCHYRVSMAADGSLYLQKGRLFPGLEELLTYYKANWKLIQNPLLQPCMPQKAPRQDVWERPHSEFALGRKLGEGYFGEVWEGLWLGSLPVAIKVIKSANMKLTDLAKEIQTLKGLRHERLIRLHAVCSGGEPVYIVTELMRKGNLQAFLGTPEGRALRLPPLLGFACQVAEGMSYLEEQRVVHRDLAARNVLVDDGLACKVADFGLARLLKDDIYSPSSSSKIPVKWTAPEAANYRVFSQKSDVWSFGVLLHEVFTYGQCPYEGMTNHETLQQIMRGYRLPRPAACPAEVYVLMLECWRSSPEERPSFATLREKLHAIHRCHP
# T11 sequence (Q9NY57 whole entry): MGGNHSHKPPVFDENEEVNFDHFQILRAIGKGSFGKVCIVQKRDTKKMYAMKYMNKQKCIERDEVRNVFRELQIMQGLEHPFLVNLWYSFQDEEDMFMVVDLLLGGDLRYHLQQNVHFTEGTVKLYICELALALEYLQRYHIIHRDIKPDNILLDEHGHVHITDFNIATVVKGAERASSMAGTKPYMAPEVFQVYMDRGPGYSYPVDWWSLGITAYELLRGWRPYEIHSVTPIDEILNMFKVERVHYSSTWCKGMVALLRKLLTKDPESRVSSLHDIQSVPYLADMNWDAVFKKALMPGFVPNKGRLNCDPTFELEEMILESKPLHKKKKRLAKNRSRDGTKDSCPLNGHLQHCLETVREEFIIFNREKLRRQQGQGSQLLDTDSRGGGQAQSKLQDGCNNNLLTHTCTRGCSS
# T10 sequence (P51812 whole entry): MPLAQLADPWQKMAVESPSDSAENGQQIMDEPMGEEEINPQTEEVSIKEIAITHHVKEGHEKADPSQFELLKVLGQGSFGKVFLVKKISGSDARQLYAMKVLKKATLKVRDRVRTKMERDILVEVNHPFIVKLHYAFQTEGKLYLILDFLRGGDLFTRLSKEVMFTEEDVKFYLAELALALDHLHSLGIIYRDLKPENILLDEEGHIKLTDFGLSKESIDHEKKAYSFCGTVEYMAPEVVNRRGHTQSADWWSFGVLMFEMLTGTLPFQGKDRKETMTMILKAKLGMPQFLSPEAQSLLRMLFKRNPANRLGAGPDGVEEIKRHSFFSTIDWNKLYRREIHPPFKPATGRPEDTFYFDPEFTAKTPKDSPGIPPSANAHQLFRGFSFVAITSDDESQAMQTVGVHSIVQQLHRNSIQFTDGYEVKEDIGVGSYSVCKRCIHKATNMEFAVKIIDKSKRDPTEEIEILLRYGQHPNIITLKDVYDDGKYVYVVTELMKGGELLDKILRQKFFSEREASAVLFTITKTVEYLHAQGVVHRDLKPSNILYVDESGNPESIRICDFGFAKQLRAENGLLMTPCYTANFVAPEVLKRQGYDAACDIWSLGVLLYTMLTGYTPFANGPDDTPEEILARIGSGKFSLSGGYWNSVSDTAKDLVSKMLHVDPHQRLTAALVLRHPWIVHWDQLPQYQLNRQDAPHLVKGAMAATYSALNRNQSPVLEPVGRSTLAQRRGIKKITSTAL
# Chain of NEK5 (Q6P3R8 whole entry): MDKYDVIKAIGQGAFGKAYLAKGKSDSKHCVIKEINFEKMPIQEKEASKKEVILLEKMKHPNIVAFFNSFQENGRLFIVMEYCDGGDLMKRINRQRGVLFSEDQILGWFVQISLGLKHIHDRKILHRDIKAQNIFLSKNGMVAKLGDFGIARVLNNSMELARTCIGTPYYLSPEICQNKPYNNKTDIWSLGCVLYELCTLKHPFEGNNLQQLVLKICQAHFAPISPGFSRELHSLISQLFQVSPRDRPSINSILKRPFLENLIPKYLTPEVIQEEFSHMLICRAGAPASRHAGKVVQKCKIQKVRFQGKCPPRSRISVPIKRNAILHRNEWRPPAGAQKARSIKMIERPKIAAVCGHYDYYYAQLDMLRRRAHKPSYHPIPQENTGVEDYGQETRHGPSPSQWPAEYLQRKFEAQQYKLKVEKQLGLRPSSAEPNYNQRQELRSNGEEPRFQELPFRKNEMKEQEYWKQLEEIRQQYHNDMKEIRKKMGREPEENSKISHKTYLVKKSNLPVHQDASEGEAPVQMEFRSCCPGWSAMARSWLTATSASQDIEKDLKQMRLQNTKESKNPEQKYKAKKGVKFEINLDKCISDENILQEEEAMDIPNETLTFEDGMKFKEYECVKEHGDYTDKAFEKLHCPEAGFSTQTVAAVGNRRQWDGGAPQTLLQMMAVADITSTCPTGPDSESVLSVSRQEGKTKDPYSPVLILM
# T1 sequence (P35968 whole entry): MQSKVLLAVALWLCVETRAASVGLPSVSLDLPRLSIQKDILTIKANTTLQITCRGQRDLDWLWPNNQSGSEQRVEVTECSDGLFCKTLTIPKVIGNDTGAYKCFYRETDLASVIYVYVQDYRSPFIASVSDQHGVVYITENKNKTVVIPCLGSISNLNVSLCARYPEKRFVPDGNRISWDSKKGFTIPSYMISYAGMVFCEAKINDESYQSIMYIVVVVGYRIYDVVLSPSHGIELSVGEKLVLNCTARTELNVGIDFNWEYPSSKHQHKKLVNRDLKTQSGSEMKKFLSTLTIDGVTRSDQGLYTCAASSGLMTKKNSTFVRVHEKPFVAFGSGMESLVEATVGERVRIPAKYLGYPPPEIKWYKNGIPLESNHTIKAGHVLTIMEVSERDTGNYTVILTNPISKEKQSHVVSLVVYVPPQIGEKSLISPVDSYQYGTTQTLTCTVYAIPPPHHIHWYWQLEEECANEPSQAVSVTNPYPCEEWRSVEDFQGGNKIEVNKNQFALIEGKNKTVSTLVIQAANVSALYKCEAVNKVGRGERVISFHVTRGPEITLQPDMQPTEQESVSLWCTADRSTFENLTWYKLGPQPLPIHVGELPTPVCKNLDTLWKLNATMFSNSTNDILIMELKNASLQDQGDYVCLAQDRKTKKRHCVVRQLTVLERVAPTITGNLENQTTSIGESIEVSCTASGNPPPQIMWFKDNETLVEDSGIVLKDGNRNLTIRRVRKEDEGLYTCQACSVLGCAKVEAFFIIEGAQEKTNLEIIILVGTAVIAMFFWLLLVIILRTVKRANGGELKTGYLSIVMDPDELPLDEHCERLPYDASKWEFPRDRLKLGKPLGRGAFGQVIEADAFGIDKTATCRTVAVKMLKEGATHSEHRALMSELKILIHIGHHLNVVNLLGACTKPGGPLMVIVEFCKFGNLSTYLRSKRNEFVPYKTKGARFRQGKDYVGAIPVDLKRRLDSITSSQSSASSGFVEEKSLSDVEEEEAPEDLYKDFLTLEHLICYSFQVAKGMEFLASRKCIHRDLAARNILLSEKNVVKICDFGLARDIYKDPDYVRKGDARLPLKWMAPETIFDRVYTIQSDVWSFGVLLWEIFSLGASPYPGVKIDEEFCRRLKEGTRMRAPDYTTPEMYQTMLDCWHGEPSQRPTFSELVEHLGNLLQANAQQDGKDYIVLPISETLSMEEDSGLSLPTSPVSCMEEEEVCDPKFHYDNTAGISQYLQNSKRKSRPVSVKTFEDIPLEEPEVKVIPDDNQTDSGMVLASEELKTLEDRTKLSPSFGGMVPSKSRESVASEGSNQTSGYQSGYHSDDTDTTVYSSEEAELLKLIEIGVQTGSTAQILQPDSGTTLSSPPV
# T8 sequence (O94768 whole entry): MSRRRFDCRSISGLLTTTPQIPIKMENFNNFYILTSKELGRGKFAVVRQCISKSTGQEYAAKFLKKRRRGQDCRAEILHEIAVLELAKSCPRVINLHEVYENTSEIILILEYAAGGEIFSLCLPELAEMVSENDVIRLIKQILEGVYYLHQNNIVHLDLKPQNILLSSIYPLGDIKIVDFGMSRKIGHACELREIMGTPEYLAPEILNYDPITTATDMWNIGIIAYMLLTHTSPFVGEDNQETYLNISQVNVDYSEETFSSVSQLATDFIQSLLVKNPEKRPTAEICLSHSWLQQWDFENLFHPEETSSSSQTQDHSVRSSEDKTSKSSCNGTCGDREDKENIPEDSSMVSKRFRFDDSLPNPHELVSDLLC
compound,measurement,setting,value
Cn1c(=O)[nH]c2ccc(-c3cccc(C(=O)NC4CCn5ccnc5C4)c3)cc21 (stereo not drawn) [Z36-MP5],remaining binding at 1 µM,[1],56%
same,remaining binding at 1 µM,[2],74%
same,remaining binding at 1 µM,[3],95%
same,remaining binding at 1 µM,[4],93%
same,remaining binding at 1 µM,[5],81%
same,remaining binding at 1 µM,[6],90%
same,remaining binding at 1 µM,[7],51%
same,remaining binding at 1 µM,[8],89%
same,remaining binding at 1 µM,[9],88%
same,remaining binding at 1 µM,[10],90%
same,remaining binding at 1 µM,[11],81%
same,remaining binding at 1 µM,[12],90%
same,remaining binding at 1 µM,[13],90%
same,remaining binding at 1 µM,[14],98%
same,remaining binding at 1 µM,[15],76%
same,remaining binding at 1 µM,[16],99%
same,remaining binding at 1 µM,[17],54%
same,remaining binding at 1 µM,[18],79%
same,remaining binding at 1 µM,[19],100%
same,remaining binding at 1 µM,[20],82%
same,remaining binding at 1 µM,[21],67%
same,remaining binding at 1 µM,[22],56%
same,remaining binding at 1 µM,[23],55%
same,remaining binding at 1 µM,[24],59%
